Results reported in patent publication US9290440B2, “Bicyclic compound” (TOA EIYO LTD., priority 2012, dated 2016).
Like-named read-outs stand apart in the source and are kept apart here.

Molecular target: T1, human sGC α subunit and β subunit (Homo sapiens, UniProt Q02153)
T1 construct: expressed in transfected cells
T1 sequence (Q02153 1-619): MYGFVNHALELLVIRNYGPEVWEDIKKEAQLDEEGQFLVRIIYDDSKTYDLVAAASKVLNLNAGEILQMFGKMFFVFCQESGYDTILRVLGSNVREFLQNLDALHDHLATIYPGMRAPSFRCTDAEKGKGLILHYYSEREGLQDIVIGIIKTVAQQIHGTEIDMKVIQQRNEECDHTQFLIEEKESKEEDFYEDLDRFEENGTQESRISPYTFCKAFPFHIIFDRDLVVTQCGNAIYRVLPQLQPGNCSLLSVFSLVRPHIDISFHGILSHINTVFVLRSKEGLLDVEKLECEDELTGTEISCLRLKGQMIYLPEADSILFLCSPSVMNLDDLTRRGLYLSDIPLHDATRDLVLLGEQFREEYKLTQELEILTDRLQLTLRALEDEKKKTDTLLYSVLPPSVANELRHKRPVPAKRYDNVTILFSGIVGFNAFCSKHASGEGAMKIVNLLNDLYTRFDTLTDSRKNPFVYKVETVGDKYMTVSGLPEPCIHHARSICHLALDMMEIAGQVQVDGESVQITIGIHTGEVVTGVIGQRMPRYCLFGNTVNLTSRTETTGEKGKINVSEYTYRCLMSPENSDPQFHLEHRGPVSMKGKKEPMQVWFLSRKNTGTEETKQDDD
T1 sequence (Q02108 1-690 partner): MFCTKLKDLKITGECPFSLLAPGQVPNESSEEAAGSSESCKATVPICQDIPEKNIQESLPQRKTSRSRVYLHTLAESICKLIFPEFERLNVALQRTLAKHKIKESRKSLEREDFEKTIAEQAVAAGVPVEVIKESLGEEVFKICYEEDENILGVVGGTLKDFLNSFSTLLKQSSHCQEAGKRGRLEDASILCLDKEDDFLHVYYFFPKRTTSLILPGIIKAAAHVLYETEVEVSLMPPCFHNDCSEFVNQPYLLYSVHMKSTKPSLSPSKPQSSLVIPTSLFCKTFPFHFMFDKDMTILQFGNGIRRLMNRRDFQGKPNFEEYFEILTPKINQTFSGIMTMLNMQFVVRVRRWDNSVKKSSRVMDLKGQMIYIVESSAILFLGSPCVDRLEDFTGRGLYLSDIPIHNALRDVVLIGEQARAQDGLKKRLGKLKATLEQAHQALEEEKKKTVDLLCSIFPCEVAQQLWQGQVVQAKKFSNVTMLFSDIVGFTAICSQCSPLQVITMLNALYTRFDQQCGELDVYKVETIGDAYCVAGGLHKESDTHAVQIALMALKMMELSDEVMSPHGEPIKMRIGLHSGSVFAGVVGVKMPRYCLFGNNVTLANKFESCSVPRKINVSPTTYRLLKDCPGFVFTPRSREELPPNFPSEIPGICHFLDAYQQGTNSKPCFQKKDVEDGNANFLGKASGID
Test: Maximum effect of sGC activating function (Ca2+ fluorescence in CHO-K1 cells expressing human sGC and mouse CNGA2)
Format: cell-based
Details: increase ratio of sGC activity vs control solution at 10 μmol/L test compound
In short: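 CHO-K1 cells stably expressing human sGC α/β and mouse CNGA2 were FURA2-AM loaded and then treated with compound at 10 μmol/L for 10 min at RT, in buffer containing 100 μmol/L IBMX, with or without 10 μmol/L ODQ. Ca²⁺ was read as the 340/380 nm excitation ratio. Activity is the % increase over the DMSO control.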

[1] = ODQ not contained, read-out: Emax (%) ODQ− (Heme-dependent)
[2] = with 10 μmol/L ODQ, read-out: Emax (%) ODQ+ (Heme-independent)

Emax at 10 µM [1] | Emax at 10 µM [2] | Compound
53% | 86% | O=C(O)CCCCN(CCc1ccccc1OCc1ccc(CCc2ccccc2)cc1)Cc1ccc(C(=O)O)cc1 [Cinaciguat, reference compound]
101% | 99.9% | O=C(O)CCCCN(CCc1ccccc1OCc1ccc(SCc2ccccc2)cc1)C1CCCc2cc(C(=O)O)ccc21 (stereo not drawn) [Example 15, 5-{N-[2-[2-(4-Benzylsulfanylbenzyloxyl)phenyl]ethyl]-N-(4-carboxybutyl)amino}-5,6,7,8-tetrahydronaphthalene-2-carboxylic acid]
141% | 133% | O=C(O)CCCCN(CCc1ccccc1OCc1cccc2c1CCCC2)C1CCCc2cc(C(=O)O)ccc21 (stereo not drawn) [Example 29, 5-{N-(4-Carboxybutyl)-N-[2-[2-(5,6,7,8-tetrahydronaphthalene-1-ylmethoxy)phenyl]ethyl]amino}-5,6,7,8-tetrahydronaphthalene-2-carboxylic acid]
